Columns and labels:
interferon (α) (IFN-α) = test: Cytokine induction in human cells: IFN-α secreted by PBMC into culture media (ELISA); format: cell-based; conditions: for minimal effective concentration / Maximal Response IFN / Minimum Effective Concentration IFN: human PBMC; for minimal effective concentration: lowest tested concentration inducing IFN-α over usually 20 pg/mL, median where more than one experiment, read-out: Minimum Effective Concentration (μM) IFN; for Maximal Response (pg/mL) IFN: maximal response in dose response curve, median; for Maximal Response IFN / Minimum Effective Concentration IFN: median where tested in more than one experiment
Text: (§1) Cytokine Induction in Human Cells
(§2) An in vitro human blood cell system is used to assess cytokine induction. Activity is based on the measurement of interferon (α) and tumor necrosis factor (α) (IFN-α and TNF-α, respectively) secreted into culture media as described by Testerman et. al. in “Cytokine Induction by the Immunomodulators Imiquimod and S-27609”, Journal of Leukocyte Biology, 58, 365-372 (September, 1995).
(§3) Blood Cell Preparation for Culture
(§4) Whole blood from healthy human donors is collected by venipuncture into vacutainer tubes or syringes containing EDTA. Peripheral blood mononuclear cells (PBMC) are separated from whole blood by density gradient centrifugation using HISTOPAQUE-1077 (Sigma, St. Louis, Mo.) or Ficoll-Paque Plus (Amersham Biosciences Piscataway, N.J.). Blood is diluted 1:1 with Dulbecco's Phosphate Buffered Saline (DPBS) or Hank's Balanced Salts Solution (HBSS). Alternately, whole blood is placed in Accuspin (Sigma) or LeucoSep (Oreiner Bio-One, Inc., Longwood, Fla.) centrifuge frit tubes containing density gradient medium. The PBMC layer is collected and washed twice with DPBS or HBSS and re-suspended at 4×10^6 cells/mL in RPMI complete. The PBMC suspension is added to 96 well flat bottom sterile tissue culture plates containing an equal volume of RPMI complete media containing test compound.
(§5) The compounds are solubilized in dimethyl sulfoxide (DMSO). The DMSO concentration should not exceed a final concentration of 1% for addition to the culture wells. The compounds are generally tested at concentrations ranging from 30-0.014 μM. Controls include cell samples with media only, cell samples with DMSO only (no compound), and cell samples with reference compound.
(§6) The solution of test compound is added at 60 μM to the first well containing RPMI complete and serial 3 fold dilutions are made in the wells. The PBMC suspension is then added to the wells in an equal volume, bringing the test compound concentrations to the desired range (usually 30-0.014 μM). The final concentration of PBMC suspension is 2×10^6 cells/mL. The plates are covered with sterile plastic lids, mixed gently and then incubated for 18 to 24 hours at 37° C. in a 5% carbon dioxide atmosphere.
(§7) Following incubation the plates are centrifuged for 10 minutes at 1000 rpm (approximately 200×g) at 4° C. The cell-free culture supernatant is removed and transferred to sterile polypropylene tubes. Samples are maintained at −30 to −70° C. until analysis. The samples are analyzed for IFN-α by ELISA and for TNF-α by IGEN/BioVeris Assay.
(§8) Interferon (α) and Tumor Necrosis Factor (α) Analysis
IFN-α concentration is determined with a human multi-subtype calorimetric sandwich ELISA (Catalog Number 41105) from PBL Biomedical Laboratories, Piscataway, N.J. Results are expressed in pg/mL.
(§9) In total, the data output of the assay consists of concentration values of TNF-α and IFN-α (y-axis) as a function of compound concentration (x-axis).
Analysis of the data has two steps. First, the greater of the mean DMSO (DMSO control wells) or the experimental background (usually 20 pg/mL for IFN-α and 40 pg/mL for TNF-α) is subtracted from each reading. If any negative values result from background subtraction, the reading is reported as “*”, and is noted as not reliably detectable. In subsequent calculations and statistics, “*”, is treated as a zero. Second, all background subtracted values are multiplied by a single adjustment ratio to decrease experiment to experiment variability. The adjustment ratio is the area of the reference compound in the new experiment divided by the expected area of the reference compound based on the past 61 experiments (unadjusted readings). […] The reference compound used is 2-[4-amino-2-ethoxymethyl-6,7,8,9-tetrahydro-α,α-dimethyl-1H-imidazo[4,5-c]quinolin-1-yl]ethanol hydrate (U.S. Pat. No. 5,352,784; Example 91) and the expected area is the sum of the median dose values from the past 61 experiments. […]

[1] = test system: tumor necrosis factor (α) (TNF-α); test: Cytokine induction in human cells: TNF-α secreted by PBMC into culture media (ORIGEN M-Series immunoassay); format: cell-based; set-up: key to Maximal Response (pg/mL) TNF / Maximal Response TNF: If any negative values result from background subtraction, the reading is reported as “*”, and is noted as not reliably detectable; conditions: for minimal effective concentration / Minimum Effective Concentration TNF / Maximal Response TNF: human PBMC; for minimal effective concentration: lowest tested concentration inducing TNF-α over usually 40 pg/mL, median where more than one experiment, read-out: Minimum Effective Concentration (μM) TNF; for Maximal Response (pg/mL) TNF: maximal response in dose response curve; for Maximal Response (pg/mL) TNF / Maximal Response TNF: median; for Minimum Effective Concentration TNF: median where tested in more than one experiment
Text: as §1, §2, §3, §4, §5, §6, §7, §8
The TNF-α concentration is determined by ORIGEN M-Series Immunoassay and read on an IGEN M-8 analyzer from BioVeris Corporation, formerly known as IGEN International, Gaithersburg, Md. The immunoassay uses a human TNF-α capture and detection antibody pair (Catalog Numbers AHC3419 and AHC3712) from Biosource International, Camarillo, Calif. Results are expressed in pg/mL.
as §9
Analysis of the data has two steps. First, the greater of the mean DMSO (DMSO control wells) or the experimental background (usually 20 pg/mL for IFN-α and 40 pg/mL for TNF-α) is subtracted from each reading. If any negative values result from background subtraction, the reading is reported as “*”, and is noted as not reliably detectable. In subsequent calculations and statistics, “*”, is treated as a zero. Second, all background subtracted values are multiplied by a single adjustment ratio to decrease experiment to experiment variability. The adjustment ratio is the area of the reference compound in the new experiment divided by the expected area of the reference compound based on the past 61 experiments (unadjusted readings). […]

[2] = Table 10, * = below experimental background level
[3] = Table 11, * = TNF below experimental background of 40 pg/mL
[4] = Table 8, background-subtracted, reference-adjusted

Which minimal effective concentration (interferon (α) (IFN-α); Table 10) does the source give for CCCC(=O)NCCCCn1c(CCC)nc2c(N)nc3cc(-c4cccnc4)ccc3c21 [Analog 32] here?
Its minimal effective concentration is 0.12 µM.

What about the “Maximal Response (pg/mL) IFN” value (interferon (α) (IFN-α); [2]) of the same compound?
Its value is 862 pg/mL.

What about the minimal effective concentration ([1]; Table 10) of the same compound?
Its minimal effective concentration is 0.37 µM.

And the “Maximal Response (pg/mL) TNF” value [1, 2]?
The value was 1647 pg/mL.

With CCOCc1nc2c(N)nc3cc(-c4cccnc4)ccc3c2n1CC1CCN(C(=O)C(C)C)CC1 [Analog 18] as the compound, how does the minimal effective concentration (interferon (α) (IFN-α); Table 10) read?
Its minimal effective concentration is 0.12 µM.

And the “Maximal Response (pg/mL) IFN” value (interferon (α) (IFN-α); [2])?
Its value is 2979 pg/mL.

What about the minimal effective concentration ([1]; Table 10) of the same compound?
The minimal effective concentration was 0.37 µM.

What about the “Maximal Response (pg/mL) TNF” value [1, 2] of the same compound?
Its value is 1449 pg/mL.

Which “Maximal Response IFN” value (interferon (α) (IFN-α); Table 11) does the source give for COCCc1nc2c(N)nc3ccccc3c2n1CCCN [Analog 86] here?
Its value is 3433 pg/mL.

What about the “Minimum Effective Concentration IFN” value (interferon (α) (IFN-α); Table 11) of the same compound?
Its value is 0.04 µM.

What about the “Minimum Effective Concentration TNF” value ([1]; Table 11) of the same compound?
The value was 1.11 µM.

What about the “Maximal Response TNF” value [1, 3] of the same compound?
Its value is 1674 pg/mL.

What does the source list for COCCc1nc2c(N)nc3cc(-c4cccnc4)ccc3c2n1CC(C)(C)O [Analog 12]?
minimal effective concentration (interferon (α) (IFN-α); Table 10): 0.014 µM; Maximal Response (pg/mL) IFN (interferon (α) (IFN-α); [2]): 1065 pg/mL; minimal effective concentration ([1]; Table 10): 0.014 µM; Maximal Response (pg/mL) TNF [1, 2]: 8386 pg/mL

COCCc1nc2c(N)nc3ccccc3c2n1CCCCNC(=O)c1nccc2ccccc12 [Analog 112] was tested. Which “Maximal Response IFN” value (interferon (α) (IFN-α); Table 11) did it give?
The value was 2127 pg/mL.

And the “Minimum Effective Concentration IFN” value (interferon (α) (IFN-α); Table 11)?
The value was 0.014 µM.

And the “Minimum Effective Concentration TNF” value ([1]; Table 11)?
Its value is 0.04 µM.

What about the “Maximal Response TNF” value [1, 3] of the same compound?
Its value is 1462 pg/mL.

What does the source list for CC(C)(O)Cn1c(CO)nc2c(N)nc3cccnc3c21 [Example 148, 1-(4-Amino-2-hydroxymethyl-1H-imidazo[4,5-c][1,5]naphthyridin-1-yl)-2-methylpropan-2-ol]?
Maximal Response (pg/mL) IFN (interferon (α) (IFN-α); [4]): 3038 pg/mL; Maximal Response IFN (interferon (α) (IFN-α); Table 12): 2290 pg/mL; Maximal Response (pg/mL) TNF [1, 4]: 684 pg/mL; Maximal Response TNF ([1]; Table 12, * = below the experimental background of 40 pg/mL): 1316 pg/mL

With CN(CCOCCn1c(CCO)nc2c(N)nc3ccccc3c21)S(C)(=O)=O [Example 133] as the compound, how does the “Maximal Response IFN” value (interferon (α) (IFN-α); Table 11) read?
Its value is 8361 pg/mL.

And the “Minimum Effective Concentration IFN” value (interferon (α) (IFN-α); Table 11)?
Its value is 0.37 µM.

What about the “Minimum Effective Concentration TNF” value ([1]; Table 11) of the same compound?
The value was greater than 30 µM.

And the “Maximal Response TNF” value [1, 3]?
The value was “*”.

With CS(=O)(=O)NCCCn1c(CCO)nc2c(N)nc3ccccc3c21 [Example 122] as the compound, how does the “Maximal Response IFN” value (interferon (α) (IFN-α); Table 11) read?
The value was 9651 pg/mL.

What about the “Minimum Effective Concentration IFN” value (interferon (α) (IFN-α); Table 11) of the same compound?
Its value is 3.33 µM.

What about the “Minimum Effective Concentration TNF” value ([1]; Table 11) of the same compound?
Its value is greater than 30 µM.

And the “Maximal Response TNF” value [1, 3]?
Its value is “*”.

CCCNC(=O)NCCCCn1c(COCC)nc2c(N)nc3cc(-c4cccnc4)ccc3c21 [Analog 29] was tested. Which minimal effective concentration (interferon (α) (IFN-α); Table 10) did it give?
Its minimal effective concentration is 0.04 µM.

What about the “Maximal Response (pg/mL) IFN” value (interferon (α) (IFN-α); [2]) of the same compound?
Its value is 936 pg/mL.

What about the minimal effective concentration ([1]; Table 10) of the same compound?
The minimal effective concentration was 1.11 µM.

And the “Maximal Response (pg/mL) TNF” value [1, 2]?
The value was 1059 pg/mL.

What does the source list for CC(C)(Cn1c(CO)nc2c(N)nc3ccccc3c21)NC(=O)C1CCCCC1 [Example 5, N-[2-(4-Amino-2-hydroxymethyl-1H-imidazo[4,5-c]quinolin-1-yl)-1,1-dimethylethyl]cyclohexanecarboxamide]?
Maximal Response IFN (interferon (α) (IFN-α); Table 11): 17274 pg/mL; Maximal Response TNF [1, 3]: 1130 pg/mL

Which “Maximal Response IFN” value (interferon (α) (IFN-α); Table 11) does the source give for NCCCn1c(CCO)nc2c(N)nc3ccccc3c21 [Example 120] here?
The value was 5636 pg/mL.

What about the “Minimum Effective Concentration IFN” value (interferon (α) (IFN-α); Table 11) of the same compound?
The value was 3.33 µM.

What about the “Minimum Effective Concentration TNF” value ([1]; Table 11) of the same compound?
The value was greater than 30 µM.

And the “Maximal Response TNF” value [1, 3]?
Its value is “*”.

Source: patent US8846710B2, “Method of preferentially inducing the biosynthesis of interferon” (3M Innovative Properties Company, priority 2005, dated 2014)
